Several values for one entry are separate records, joined by “and”; a condition that tells them apart may be missing. Equal entries are not always repeated.
Legend:
Test in all cases: microbe, parasite or virus in culture
Set-up in all cases: species or system Staphylococcus aureus clinical blood isolates and ATCC 29213; Broth microdilution MIC in cation-adjusted Mueller-Hinton broth with 50 ug/mL CaCl2, EUCAST reading, 37 C
[1] = test system: T1, Staphylococcus aureus PB0101; details: PB0101, 16 h, replicate MIC, MHB + 50 ug/mL CaCl2
T1 construct: PB0101
Procedure: (§1) MICs were measured in cation-adjusted Mueller-Hinton broth (MHB) supplemented with 50 μg/mL CaCl2 (MHB-Ca^2+) via broth microdilution in 96-well plates with an inoculum of ∼5 × 10^5 CFU per mL. Antibiotic test concentrations ranged from 0.0625 μg/mL to 32 μg/mL by 2-fold dilutions. Plates were incubated at 37°C for 16 h without shaking, and results were interpreted in accordance with European Committee on Antimicrobial Susceptibility Testing reading guidelines ([72]). S. aureus ATCC 29213 was used as a quality-control strain.

[2] = test system: T2, Staphylococcus aureus PB0702; details: PB0702, 16 h, replicate MIC, MHB + 50 ug/mL CaCl2
T2 construct: PB0702
Procedure: as §1

[3] = test system: T3, Staphylococcus aureus PB1802; details: PB1802, 16 h, replicate MIC, MHB + 50 ug/mL CaCl2
T3 construct: PB1802
Procedure: as §1

[4] = test system: T4, Staphylococcus aureus PB0804; details: PB0804, 16 h, replicate MIC, MHB + 50 ug/mL CaCl2
T4 construct: PB0804
Procedure: as §1

[5] = test system: T5, Staphylococcus aureus PB1101; details: PB1101, 16 h, replicate MIC, MHB + 50 ug/mL CaCl2
T5 construct: PB1101
Procedure: as §1

[6] = test system: T6, Staphylococcus aureus PB1512; details: PB1512, 16 h, replicate MIC, MHB + 50 ug/mL CaCl2
T6 construct: PB1512
Procedure: as §1

[7] = test system: T7, Staphylococcus aureus PB1405; details: PB1405, 16 h, replicate MIC, MHB + 50 ug/mL CaCl2
T7 construct: PB1405
Procedure: as §1

[8] = test system: T8, Staphylococcus aureus PB0610; details: PB0610, 16 h, replicate MIC, MHB + 50 ug/mL CaCl2
T8 construct: PB0610
Procedure: as §1

[9] = test system: T9, S. aureus ATCC 29213; details: Staphylococcus aureus, ATCC29213, 16 h; replicate MIC, MHB + 50 ug/mL CaCl2
T9 construct: ATCC 29213
Procedure: as §1

[10] = test system: T10, Staphylococcus aureus PB1406; details: PB1406, 16 h, replicate MIC, MHB + 50 ug/mL CaCl2
T10 construct: PB1406
Procedure: as §1

[11] = test system: T11, Staphylococcus aureus PB0102; details: PB0102, 16 h, replicate MIC, MHB + 50 ug/mL CaCl2
T11 construct: PB0102
Procedure: as §1

[12] = test system: T12, Staphylococcus aureus PB0411; details: PB0411, 16 h, replicate MIC, MHB + 50 ug/mL CaCl2
T12 construct: PB0411
Procedure: as §1

[13] = test system: T13, Staphylococcus aureus PB0208; details: PB0208, 16 h, replicate MIC, MHB + 50 ug/mL CaCl2
T13 construct: PB0208
Procedure: as §1

[14] = test system: T14, Staphylococcus aureus PB0409; details: PB0409, 16 h, replicate MIC, MHB + 50 ug/mL CaCl2
T14 construct: PB0409
Procedure: as §1

[15] = test system: T15, Staphylococcus aureus PB0207; details: PB0207, 16 h, replicate MIC, MHB + 50 ug/mL CaCl2
T15 construct: PB0207
Procedure: as §1

| SMILES | MIC [1] [µg/mL] | MIC [2] [µg/mL] | MIC [3] [µg/mL] | MIC [4] [µg/mL] | MIC [5] [µg/mL] | MIC [6] [µg/mL] | MIC [7] | MIC [8] | MIC [9] [µg/mL] | MIC [10] [µg/mL] | MIC [11] [µg/mL] | MIC [12] [µg/mL] | MIC [13] [µg/mL] | MIC [14] [µg/mL] | MIC [15] |
| --- | --- | --- | --- | --- | --- | --- | --- | --- | --- | --- | --- | --- | --- | --- | --- |
| CCO/N=C(\C(=O)N[C@@H]1C(=O)N2C(C(=O)[O-])=C(Sc3nc(-c4cc[n+](C)cc4)cs3)CS[C@H]12)c1nsc(N)n1 [Ceftaroline] | 0.5 | 0.5 | 0.5 | 0.5 | 0.5 | 0.5 | 0.25 µg/mL | 0.25 µg/mL | 0.25 | 0.25 | 0.5 | 0.5 | 0.5 | 0.5 | 0.5 µg/mL |
| CCCCCCCCCC(=O)N[C@@H](Cc1c[nH]c2ccccc12)C(=O)N[C@H](CC(N)=O)C(=O)N[C@@H](CC(=O)O)C(=O)N[C@@H]1C(=O)NCC(=O)N[C@@H](CCCN)C(=O)N[C@@H](CC(=O)O)C(=O)N[C@H](C)C(=O)N[C@@H](CC(=O)O)C(=O)NCC(=O)N[C@H](CO)C(=O)N[C@@H]([C@H](C)CC(=O)O)C(=O)N[C@@H](CC(=O)c2ccccc2N)C(=O)O[C@@H]1C [Daptomycin] | 1 | 2 | 2 | 1 | 2 | 1 | 2 µg/mL and 1 µg/mL | 1 µg/mL | 1 | 1 | 2 | 1 | 1 | 1 | 1 µg/mL |
| CC(=O)NC[C@H]1CN(c2ccc(N3CCOCC3)c(F)c2)C(=O)O1 [Linezolid] | 4 | 4 | 4 | 2 | 4 | 4 | 4 µg/mL | 4 µg/mL | 4 | 4 | 4 | 4 | 4 | 4 | 4 µg/mL |
| CN[C@H](CC(C)C)C(=O)N[C@H]1C(=O)N[C@@H](CC(N)=O)C(=O)N[C@H]2C(=O)N[C@H]3C(=O)N[C@H](C(=O)N[C@H](C(=O)O)c4cc(O)cc(O)c4-c4cc3ccc4O)[C@H](O)c3ccc(c(Cl)c3)Oc3cc2cc(c3O[C@@H]2O[C@H](CO)[C@@H](O)[C@H](O)[C@H]2O[C@H]2C[C@](C)(N)[C@H](O)[C@H](C)O2)Oc2ccc(cc2Cl)[C@H]1O [Vancomycin] | 2 | 2 | 2 | 2 | 2 | 2 | 2 µg/mL | 2 µg/mL and 4 µg/mL | 2 | 2 | 2 | 2 | 4 | 2 | 2 µg/mL and 1 µg/mL |
